Test [1] is described as follows: Inhibition of recombinant Schistosoma mansoni ALDH312 expressed in baculovirus Sf9 cells in presence of NADPH.
Test [2] is described as follows: Inhibition of recombinant Schistosoma mansoni ALDH312 expressed in baculovirus Sf9 cells at 50 uM in presence of NADPH relative to control.
In test [3] the target is T1, Aldehyde dehydrogenase, mitochondrial (Homo sapiens) (UniProt P05091).
T1 sequence (whole entry): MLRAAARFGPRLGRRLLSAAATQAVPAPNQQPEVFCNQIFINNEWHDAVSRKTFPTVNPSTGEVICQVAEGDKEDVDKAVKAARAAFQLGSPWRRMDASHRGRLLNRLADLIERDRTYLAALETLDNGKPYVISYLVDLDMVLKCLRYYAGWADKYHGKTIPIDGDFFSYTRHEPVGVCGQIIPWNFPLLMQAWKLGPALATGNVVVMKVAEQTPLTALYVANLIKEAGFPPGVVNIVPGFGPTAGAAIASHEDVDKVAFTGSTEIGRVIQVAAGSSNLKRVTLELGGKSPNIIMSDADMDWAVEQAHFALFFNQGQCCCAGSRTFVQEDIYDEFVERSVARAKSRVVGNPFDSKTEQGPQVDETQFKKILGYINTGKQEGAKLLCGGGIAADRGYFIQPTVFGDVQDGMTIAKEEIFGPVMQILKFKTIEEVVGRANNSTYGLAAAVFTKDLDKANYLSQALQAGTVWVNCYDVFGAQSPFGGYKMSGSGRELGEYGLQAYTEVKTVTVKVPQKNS
The test is described as follows: Inhibition of human ALDH2 at 100 uM in presence of NADPH.

Test [4] can be described thus: Inhibition of recombinant Schistosoma mansoni ALDH312 expressed in baculovirus Sf9 cells at 100 uM in presence of NADPH relative to control.
The test system of test [5] is Schistosoma mansoni. The test is described as follows: Induction of morphological changes in Schistosoma mansoni couple assessed as loss of structural integrity in reproductive organs at 25 uM by scanning electron microscopy analysis. The test is classed as functional, organism-based.
For test [6], the system named is Schistosoma mansoni. The test is described as follows: Induction of morphological changes in male Schistosoma mansoni assessed as formation of blebs at 25 uM by confocal laser scanning microscopy analysis. The test is classed as functional, organism-based.
The test system of test [7] is Schistosoma mansoni. The experiment in a line: Induction of morphological changes in female Schistosoma mansoni assessed as degeneration of oocytes at 25 uM by scanning electron microscopy analysis. The test is classed as functional, organism-based.
In test [8] the test system is Schistosoma mansoni. The test is described as follows: Induction of morphological changes in male Schistosoma mansoni assessed as formation of ruptures at 25 uM by confocal laser scanning microscopy analysis. The test is classed as functional, organism-based.
The test system of test [9] is Schistosoma mansoni. The experiment in a line: Induction of morphological changes in Schistosoma mansoni couple assessed as effect on gonads internal structure at 10 uM by confocal laser scanning microscopy analysis. The test is classed as functional, organism-based.
Test [10] relates to Schistosoma mansoni. The test is described as follows: Antischistosomal activity against Schistosoma mansoni couple assessed as reduction worm motility at 10 to 200 uM measured at day 3. The test is classed as functional, organism-based. Particulars: dose 10-200 µM, time 3.0 day.
The subject of test [11] is Schistosoma mansoni. The test is described as follows: Induction of morphological changes in male Schistosoma mansoni assessed as degeneration of spermatogonia at 25 uM by scanning electron microscopy analysis. The test is classed as functional, organism-based.
In test [12] the test system is Schistosoma mansoni. The experiment in a line: Downregulation of Smnanos1 transcript level in Schistosoma mansoni male at 10 to 25 uM measured after 72 hrs by qRT-PCR analysis. Particulars: dose 10-25 µM. The test is classed as functional. (Real-time PCR tracks product formation cycle by cycle.)
Test [13] has as its system Schistosoma mansoni. The test is described as follows: Induction of morphological changes in female Schistosoma mansoni assessed as formation of ruptures at 25 uM by confocal laser scanning microscopy analysis. The test is classed as functional, organism-based.
Test [14] concerns Schistosoma mansoni. The test is described as follows: Downregulation of Smaldh312 level in Schistosoma mansoni male at 10 uM measured after 72 hrs by qRT-PCR analysis. The test is classed as functional.
In test [15] the target is T1, Aldehyde dehydrogenase, mitochondrial (Homo sapiens). The test is described as follows: Inhibition of human ALDH2 at 100 uM in presence of NADPH relative to control.
For test [16], the system named is Schistosoma mansoni. The test is described as follows: Inhibition of cell proliferation in Schistosoma mansoni couple assessed as reduction in EdU positive number measured after 3 days by Hoechst 33342 staining based analysis. The test is classed as functional. Particulars: dose 10-25 µM, time 3.0 day.
For test [17], the system named is Schistosoma mansoni. The test is described as follows: Antischistosomal activity against Schistosoma mansoni larva assessed as lethality at 500 nM measured after 72 hrs by Trypan blue staining based analysis. The test is classed as functional, organism-based.
Test [18] relates to Schistosoma mansoni. The test is described as follows: Induction of morphological changes in Schistosoma mansoni couple assessed as tubercles rupture at 10 to 25 uM by confocal laser scanning microscopy analysis. The note with it: dose 10-25 µM. The test is classed as functional, organism-based.
Test [19] has as its system Schistosoma mansoni. The test is described as follows: Upregulation of Smnanos2 transcript level in Schistosoma mansoni female at 10 uM measured after 72 hrs by qRT-PCR analysis. The test is classed as functional.
The test system of test [20] is Schistosoma mansoni. The experiment in a line: Antischistosomal activity against Schistosoma mansoni couple assessed as reduction in couple attachment at 10 uM measured at day 3 relative to control. The test is classed as functional. On the set-up: scale not given: the % may be the effect or the level left. The note with it: time 3 day.
Test [21] deals with Schistosoma mansoni. The experiment in a line: Antischistosomal activity against Schistosoma mansoni couple assessed as decrease in couple attachment at 25 uM measured upto 3 days. The test is classed as functional, organism-based. The note with it: time <= 3.0 day.
Test [22] relates to Schistosoma mansoni. The test is described as follows: Antischistosomal activity against Schistosoma mansoni couple assessed as couple separation at 25 uM measured at day 1 relative to control. The test is classed as functional. Particulars: time 1 day.
Test [23] deals with Schistosoma mansoni. The experiment in a line: Induction of morphological changes in Schistosoma mansoni couple assessed as formation of blebs at 10 to 25 uM by confocal laser scanning microscopy analysis. The test is classed as functional, organism-based. Particulars: dose 10-25 µM.
Test [24] has as its system Schistosoma mansoni. The experiment in a line: Antischistosomal activity against Schistosoma mansoni couple assessed as decrease in total number of eggs measured after 72 hrs. The test is classed as functional, organism-based. Particulars: dose 1-200 µM.
For test [25], the system named is Schistosoma mansoni. The test is described as follows: Induction of morphological changes in female Schistosoma mansoni assessed as formation of blebs at 25 uM by confocal laser scanning microscopy analysis. The test is classed as functional, organism-based.
Test [26] relates to Schistosoma mansoni. The test is described as follows: Antischistosomal activity against Schistosoma mansoni couple assessed as couple separation at 1 uM measured after 24 to 72 hrs. The test is classed as functional, organism-based. The note with it: time 24-72 hrs.
In test [27] the test system is Schistosoma mansoni. The experiment in a line: Induction of morphological changes in Schistosoma mansoni couple assessed as detachment of tegument at 10 to 25 uM by confocal laser scanning microscopy analysis. Particulars: dose 10-25 µM. The test is classed as functional, organism-based.
In test [28] the test system is Schistosoma mansoni. The test is described as follows: Upregulation of Smnanos2 transcript level in Schistosoma mansoni male at 10 uM measured after 72 hrs by qRT-PCR analysis. The test is classed as functional.
The test system of test [29] is Schistosoma mansoni. The test is described as follows: Antischistosomal activity against Schistosoma mansoni couple assessed as worm motility at 1 uM measured after 72 hrs. The test is classed as functional, organism-based.
Test [30] relates to Schistosoma mansoni. The experiment in a line: Antischistosomal activity against Schistosoma mansoni couple assessed as couple separation at 100 uM measured at day 1 relative to control. The test is classed as functional. The note with it: time 1 day.
Test [31] relates to Schistosoma mansoni. The test is described as follows: Induction of morphological changes in Schistosoma mansoni couple assessed as effect on gonads tegument at 10 uM by confocal laser scanning microscopy analysis. The test is classed as functional, organism-based.
Test [32] concerns Schistosoma mansoni. The experiment in a line: Induction of morphological changes in Schistosoma mansoni couple assessed as swelling of tegument at 10 to 25 uM by confocal laser scanning microscopy analysis. The note with it: dose 10-25 µM. The test is classed as functional, organism-based.
In test [33] the test system is Schistosoma mansoni. The experiment in a line: Downregulation of Smnanos1 transcript level in Schistosoma mansoni female at 10 to 25 uM measured after 72 hrs by qRT-PCR analysis. The test is classed as functional. Particulars: dose 10-25 µM.

The structures appear in SMILES notation. The source made the active and inactive calls. The rule behind the calls is not given here.

The IC50 is the point on the concentration scale where inhibition reaches its midpoint. Usually inhibition stands for the relative decrease from the control value, in per cent.

Consider `O=C(Nc1ccc(C(F)(F)F)c(C(F)(F)F)c1)c1cc(Cl)ccc1O`, for which the half-maximal inhibitory concentration (IC50) in test [1] came to 7.5 µM. For the same compound, the inhibition in test [2] and in test [4] was 100% each time. Also, the inhibition result in test [3] was “inactive”.
On to `CN1CCC(NCc2cccc(-c3ccc(S(=O)(=O)NCc4ccccc4)cc3)c2)CC1`, for which the IC50 in test [1] came out at 21.8 µM. Moreover, the inhibition result in [3] was “inactive”. In addition, the inhibition in [4] was 80.4%.
Turning to `CC(C)=CCC/C(C)=C\CNCCNC1C2CC3CC(C2)CC1C3` (stereo not given), the IC50 in test [1] is 12.5 µM. The inhibition entry in test [3] was “Active”. The inhibition in [4] worked out at 100%.
For the compound `CCN(CC)C(=S)SSC(=S)N(CC)CC` [DISULFIRAM], the outcome in [5], in test [6], in [7], in [8], in [10] and in test [11] was Active. Moreover, the result in [12], in [13], in test [14], in [17], in test [18] and in [21] was Active. The result in test [23], in test [25], in test [27], in test [28], in test [32] and in test [33] was Active. For the same compound, the result in test [9], in test [19], in [26], in test [29] and in test [31] was inactive. In addition, the inhibition is 99% in test [15], “Dose-Dependent Effect” in [16] and 41.2% in test [4]. For the same compound, the Activity in test [20] is 50%; in [22] it was 50%; in [24], “Dose-Dependent Effect”; in test [30], 100%.
